Data as given in ChEMBL document CHEMBL1201862, “PubChem BioAssay data set” (2004).
Activity calls are given as the source filed them.

What was measured:
Vasopressin V1a receptor = Vasopressin V1a receptor (Homo sapiens, UniProt P37288); test: Counterscreen for Oxytocin Receptor (OXTR) agonists: Fluorescence-based cell-based high throughput dose response assay to identify agonists of the vasopressin 1 receptor (V1R). [Related pubchem assays: 2435 (Primary screen (OXTR agonists in singlicate)), 434991 (Counterscreen (V1R agonists in triplicate)), 2482 (Summary (OXTR agonists)) …; assay type: functional
Oxytocin receptor = Oxytocin receptor (Homo sapiens, UniProt P30559); test: Fluorescence-based cell-based high throughput dose response assay for agonists of the Oxytocin Receptor (OXTR). [Related pubchem assays: 2435 (Primary screen (OXTR agonists in singlicate)), 434991 (Counterscreen (V1R agonists in triplicate)), 2482 (Summary (OXTR agonists)), 434963 (Confirmation screen (OXTR agonists in triplicate))]; assay type: functional
Vero = test: cells; assay type: functional; settings: Chlorocebus sabaeus
[1] = target: G2/mitotic-specific cyclin-B1 (Homo sapiens, UniProt P14635); test: Counterscreen assay for inhibitors of Wee1 degradation: dose response cell-based assay to identify inhibitors of cyclin B degradation. [Related pubchem assays: 1410, 1321 ]; assay type: functional
Wee1-like protein kinase = Wee1-like protein kinase (Homo sapiens, UniProt P30291); test: Dose Response Cell-based Assay for Inhibitors of Wee1 Degradation. [Related pubchem assays: 1410, 1321 ]; assay type: functional
[2] = cytotoxicity in HEK-293T cells, dose response, cytotoxicity control for TCR NF-kB inhibitor project, luminescence, T-cell screen hits (AID 489026); assay type: functional, cell-based;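 note: cells exposed to compound about 14 hours before the viability readout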
[3] = Counterscreen for IDE inhibitors: Luminescence-based cell-based high throughput dose response assay to identify compounds that are cytotoxic to HEK cells. [Related pubchem assays: 434962 (Primary screen (IDE inhibitors in singlicate)), 449730 (Counterscreen (Cytotoxicity in triplicate)), 435028 (Confirmation (IDE inhibitors in triplicate)) …; assay type: functional; settings: HEK293
Insulin-degrading enzyme = target: T1, Insulin-degrading enzyme (Homo sapiens, UniProt P14735); test: Dose Response: Fluorescence polarization-based cell-based high throughput dose response assay for inhibitors of insulin-degrading enzyme (IDE). [Related pubchem assays: 434962 (Primary screen (IDE inhibitors in singlicate)), 449730 (Counterscreen (Cytotoxicity in triplicate)), 435028 (Confirmation (IDE inhibitors in triplicate)), 434984 (Summary …; assay type: functional
T1 sequence (P14735 whole entry): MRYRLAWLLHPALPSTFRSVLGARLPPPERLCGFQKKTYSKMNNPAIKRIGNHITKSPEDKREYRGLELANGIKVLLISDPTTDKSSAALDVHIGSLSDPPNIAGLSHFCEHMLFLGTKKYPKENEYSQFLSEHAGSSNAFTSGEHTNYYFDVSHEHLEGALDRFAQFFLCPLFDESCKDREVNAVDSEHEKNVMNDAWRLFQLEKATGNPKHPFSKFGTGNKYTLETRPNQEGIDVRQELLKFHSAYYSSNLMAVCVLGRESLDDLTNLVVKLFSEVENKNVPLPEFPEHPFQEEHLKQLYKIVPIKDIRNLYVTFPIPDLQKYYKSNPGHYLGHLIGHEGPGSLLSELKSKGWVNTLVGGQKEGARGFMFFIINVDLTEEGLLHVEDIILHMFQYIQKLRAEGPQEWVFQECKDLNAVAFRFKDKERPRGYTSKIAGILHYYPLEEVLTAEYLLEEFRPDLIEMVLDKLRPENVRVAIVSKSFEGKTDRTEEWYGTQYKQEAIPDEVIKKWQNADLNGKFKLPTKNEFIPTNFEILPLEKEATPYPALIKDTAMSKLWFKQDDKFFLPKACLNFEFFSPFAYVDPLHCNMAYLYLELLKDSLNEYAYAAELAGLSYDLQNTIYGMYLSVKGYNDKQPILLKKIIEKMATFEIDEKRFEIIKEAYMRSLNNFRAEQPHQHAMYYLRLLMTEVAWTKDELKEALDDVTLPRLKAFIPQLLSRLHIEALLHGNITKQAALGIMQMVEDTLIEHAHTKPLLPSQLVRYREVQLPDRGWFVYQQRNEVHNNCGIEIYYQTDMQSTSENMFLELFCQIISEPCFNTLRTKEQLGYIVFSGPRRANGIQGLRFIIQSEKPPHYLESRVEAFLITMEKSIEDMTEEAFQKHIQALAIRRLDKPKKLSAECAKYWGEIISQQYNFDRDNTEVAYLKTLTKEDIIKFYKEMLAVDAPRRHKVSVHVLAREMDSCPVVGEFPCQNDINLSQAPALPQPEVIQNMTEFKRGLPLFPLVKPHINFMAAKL

[4] = target: Mothers against decapentaplegic homolog 3 (Homo sapiens, UniProt P84022); test: Smad3 binding inhibitors, lysate ELISA, dose response, cell lysate, secondary confirmation, chemiluminescent ELISA, HEK293 lysate (AID 1058); assay type: functional
[5] = target: T2, Neuropeptide Y receptor type 1 (Homo sapiens, UniProt P25929); assay type: functional;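 note: HEK293 cells with a CNG channel challenged with NPY then isoproterenol; potency as antagonist that reverses NPY suppression of cAMP signal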
T2 sequence (P25929 whole entry): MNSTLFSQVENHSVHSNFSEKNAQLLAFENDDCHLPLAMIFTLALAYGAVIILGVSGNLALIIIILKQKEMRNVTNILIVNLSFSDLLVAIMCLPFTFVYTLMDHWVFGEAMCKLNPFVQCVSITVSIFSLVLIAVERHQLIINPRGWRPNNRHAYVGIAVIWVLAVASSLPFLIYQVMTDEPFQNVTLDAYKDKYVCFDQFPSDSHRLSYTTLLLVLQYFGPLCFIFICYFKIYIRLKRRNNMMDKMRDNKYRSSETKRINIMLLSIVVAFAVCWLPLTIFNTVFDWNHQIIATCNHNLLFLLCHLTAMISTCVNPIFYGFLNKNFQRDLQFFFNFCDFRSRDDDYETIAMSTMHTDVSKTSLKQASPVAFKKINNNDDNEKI

[6] = target: T3, Neuropeptide Y receptor type 2 (Homo sapiens, UniProt P49146); assay type: functional, cell-based;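 note: HEK293 cells expressing the receptor and a CNG channel; stimulus was NPY near EC95 followed by isoproterenol to raise cAMP; antagonist potency measured as restoring cAMP signal that NPY suppresses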
T3 sequence (P49146 whole entry): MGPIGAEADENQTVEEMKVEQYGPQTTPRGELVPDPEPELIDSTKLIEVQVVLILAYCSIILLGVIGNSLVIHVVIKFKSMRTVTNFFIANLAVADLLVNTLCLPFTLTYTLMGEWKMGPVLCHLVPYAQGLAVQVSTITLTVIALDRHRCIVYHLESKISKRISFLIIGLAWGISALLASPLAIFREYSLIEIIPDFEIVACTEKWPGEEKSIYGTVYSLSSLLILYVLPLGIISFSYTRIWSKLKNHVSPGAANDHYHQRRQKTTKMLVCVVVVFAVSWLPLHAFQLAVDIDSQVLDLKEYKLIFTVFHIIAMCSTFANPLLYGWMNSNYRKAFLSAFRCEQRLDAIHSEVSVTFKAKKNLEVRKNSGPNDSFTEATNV

Sequence of Wee1-like protein kinase (P30291 whole entry): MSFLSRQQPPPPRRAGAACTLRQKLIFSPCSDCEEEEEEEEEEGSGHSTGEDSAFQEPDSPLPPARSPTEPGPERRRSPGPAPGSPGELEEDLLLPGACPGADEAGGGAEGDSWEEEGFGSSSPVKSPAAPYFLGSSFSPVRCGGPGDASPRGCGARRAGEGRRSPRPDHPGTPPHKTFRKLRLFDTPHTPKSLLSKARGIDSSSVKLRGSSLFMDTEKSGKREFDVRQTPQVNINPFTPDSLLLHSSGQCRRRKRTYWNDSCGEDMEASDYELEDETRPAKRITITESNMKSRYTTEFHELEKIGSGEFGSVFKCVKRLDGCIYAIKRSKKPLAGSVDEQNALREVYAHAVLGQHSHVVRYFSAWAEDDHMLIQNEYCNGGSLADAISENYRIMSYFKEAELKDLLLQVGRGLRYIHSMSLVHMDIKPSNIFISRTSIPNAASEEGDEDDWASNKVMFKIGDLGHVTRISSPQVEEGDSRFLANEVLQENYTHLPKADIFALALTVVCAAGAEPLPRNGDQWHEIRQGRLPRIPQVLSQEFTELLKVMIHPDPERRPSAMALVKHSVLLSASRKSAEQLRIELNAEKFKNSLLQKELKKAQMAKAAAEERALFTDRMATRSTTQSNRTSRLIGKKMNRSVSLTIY
Sequence of Vasopressin V1a receptor (P37288 whole entry): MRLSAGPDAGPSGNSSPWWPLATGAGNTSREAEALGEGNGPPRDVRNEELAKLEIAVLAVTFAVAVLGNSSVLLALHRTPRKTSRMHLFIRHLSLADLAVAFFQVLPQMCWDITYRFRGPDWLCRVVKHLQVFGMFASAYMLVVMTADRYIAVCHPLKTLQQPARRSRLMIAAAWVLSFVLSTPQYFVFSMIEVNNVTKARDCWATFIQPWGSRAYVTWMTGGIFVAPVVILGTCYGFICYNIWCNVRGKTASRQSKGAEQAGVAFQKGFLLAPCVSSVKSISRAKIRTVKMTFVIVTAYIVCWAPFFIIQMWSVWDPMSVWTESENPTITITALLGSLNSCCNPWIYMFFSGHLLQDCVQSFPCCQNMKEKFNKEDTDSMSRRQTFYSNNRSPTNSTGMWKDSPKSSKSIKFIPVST
Sequence of G2/mitotic-specific cyclin-B1 (P14635 whole entry): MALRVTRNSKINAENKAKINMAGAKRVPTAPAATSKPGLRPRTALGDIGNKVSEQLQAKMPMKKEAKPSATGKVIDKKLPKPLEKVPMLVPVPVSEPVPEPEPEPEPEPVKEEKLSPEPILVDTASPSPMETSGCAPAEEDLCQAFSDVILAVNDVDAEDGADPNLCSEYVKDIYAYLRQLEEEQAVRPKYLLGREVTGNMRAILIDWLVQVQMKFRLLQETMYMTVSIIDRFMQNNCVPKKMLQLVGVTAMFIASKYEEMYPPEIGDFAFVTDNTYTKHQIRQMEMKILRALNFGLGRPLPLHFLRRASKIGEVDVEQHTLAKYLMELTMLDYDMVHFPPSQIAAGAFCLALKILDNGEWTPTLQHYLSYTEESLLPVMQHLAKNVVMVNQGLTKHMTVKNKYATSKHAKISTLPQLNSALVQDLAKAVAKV
Sequence of Mothers against decapentaplegic homolog 3 (P84022 whole entry): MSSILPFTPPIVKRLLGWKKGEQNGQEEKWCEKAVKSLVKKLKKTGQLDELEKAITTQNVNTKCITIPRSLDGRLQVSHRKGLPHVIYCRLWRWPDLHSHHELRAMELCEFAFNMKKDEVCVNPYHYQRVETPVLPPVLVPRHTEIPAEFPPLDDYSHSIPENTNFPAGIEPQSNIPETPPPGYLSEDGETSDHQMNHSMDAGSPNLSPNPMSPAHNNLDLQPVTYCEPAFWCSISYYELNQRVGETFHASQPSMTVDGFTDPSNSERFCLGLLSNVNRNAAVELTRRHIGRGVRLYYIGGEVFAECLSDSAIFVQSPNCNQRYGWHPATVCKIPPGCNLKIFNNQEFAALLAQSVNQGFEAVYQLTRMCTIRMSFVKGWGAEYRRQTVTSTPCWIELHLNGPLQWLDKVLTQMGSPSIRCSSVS
Sequence of Oxytocin receptor (P30559 whole entry): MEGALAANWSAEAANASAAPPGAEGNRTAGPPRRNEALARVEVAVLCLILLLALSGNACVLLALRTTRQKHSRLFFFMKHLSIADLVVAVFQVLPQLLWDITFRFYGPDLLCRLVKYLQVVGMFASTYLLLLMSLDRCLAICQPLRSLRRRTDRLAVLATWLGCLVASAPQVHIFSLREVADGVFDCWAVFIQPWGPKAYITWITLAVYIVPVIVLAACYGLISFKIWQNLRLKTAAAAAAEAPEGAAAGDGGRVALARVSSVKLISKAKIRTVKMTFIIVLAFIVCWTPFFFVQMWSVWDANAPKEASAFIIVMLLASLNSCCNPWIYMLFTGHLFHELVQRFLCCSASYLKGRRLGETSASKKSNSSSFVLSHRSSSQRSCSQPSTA

Cc1ccc(NS(=O)(=O)c2ccc(C(=O)NCC(c3ccco3)N3CCCCC3)cc2)cc1 (stereo unspecified)
EC50 (Vasopressin V1a receptor): > 29.9 µM (not active) | EC50 (Oxytocin receptor): > 29.9 µM (not active) | CC50 (Vero): > 25 µM (active)

Cc1csc2sc(-c3ccnc(SCC(=O)NCc4ccccc4)n3)c(C)c12
EC50 [1]: > 49.7 µM (not active) | EC50 (Wee1-like protein kinase): > 49.7 µM (not active) | IC50 [2]: > 80 µM (inactive)

Cc1c(NC(=O)/C(C#N)=C/c2ccc(-c3ccc(Cl)cc3)o2)c(=O)n(-c2ccccc2)n1C
IC50 [3]: 11.1 µM (not active) | IC50 (Insulin-degrading enzyme): 2.7 µM (active)

CN(C)c1ccc(C(c2cc3c(cc2O)OCO3)N2CCOCC2)cc1 (stereo unspecified)
IC50 [4]: > 40 µM (not active)

O=C(N/N=C/c1ccco1)c1ccccc1OCc1ccc(Br)cc1
IC50 [5]: 5.34 µM (active) | IC50 [6]: 9.08 µM (active)
